Experimental data as given in patent US7674819B2 (Warner-Lambert Company LLC, priority 2005, dated 2010).
Positions count from the first letter of the chain named. Read-outs that look alike come from different tables or passages of the source.

Tests used:
hAR = target: T1, hAR (Homo sapiens, UniProt P10275); assay: Competitive binding of 3H-DHT to baculovirus/Sf9 generated hAR extracts; settings: one hour at 4° C., mean of multiple tests
T1 sequence (P10275 1-920): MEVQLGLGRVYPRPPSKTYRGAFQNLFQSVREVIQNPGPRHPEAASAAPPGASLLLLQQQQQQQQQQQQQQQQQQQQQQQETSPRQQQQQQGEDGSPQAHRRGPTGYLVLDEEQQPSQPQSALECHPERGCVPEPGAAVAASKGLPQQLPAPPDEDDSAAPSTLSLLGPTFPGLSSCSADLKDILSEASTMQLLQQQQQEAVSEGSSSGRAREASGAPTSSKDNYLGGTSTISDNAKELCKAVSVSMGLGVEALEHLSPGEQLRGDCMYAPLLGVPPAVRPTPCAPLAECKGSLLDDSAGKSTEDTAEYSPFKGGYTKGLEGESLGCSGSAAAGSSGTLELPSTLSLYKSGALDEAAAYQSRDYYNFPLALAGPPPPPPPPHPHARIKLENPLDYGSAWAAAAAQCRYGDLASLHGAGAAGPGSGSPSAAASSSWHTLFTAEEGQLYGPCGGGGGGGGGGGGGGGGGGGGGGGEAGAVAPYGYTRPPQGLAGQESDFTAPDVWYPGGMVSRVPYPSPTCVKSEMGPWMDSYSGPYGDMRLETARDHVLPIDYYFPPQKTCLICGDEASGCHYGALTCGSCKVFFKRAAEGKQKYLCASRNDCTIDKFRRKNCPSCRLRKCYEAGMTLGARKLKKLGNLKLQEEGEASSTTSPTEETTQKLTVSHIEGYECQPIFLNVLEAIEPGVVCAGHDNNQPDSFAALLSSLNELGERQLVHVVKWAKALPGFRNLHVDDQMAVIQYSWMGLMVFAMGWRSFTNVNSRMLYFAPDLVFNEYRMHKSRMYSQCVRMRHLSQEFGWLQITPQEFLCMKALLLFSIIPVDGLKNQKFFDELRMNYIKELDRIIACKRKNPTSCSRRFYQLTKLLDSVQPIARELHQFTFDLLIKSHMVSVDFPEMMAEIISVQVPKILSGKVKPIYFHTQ
How it was run: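 Baculovirus/Sf9-expressed hAR extract incubated with test compound, hydroxylapatite and 1 nM 3H-DHT tracer for 1 h at 4° C, then washed free of unbound tracer. Affinity given as concentration inhibiting half of maximal 3H-DHT binding.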

androgen receptor = target: T2, androgen receptor (Homo sapiens, UniProt P10275); assay: AR Antagonist Cell Assay (MDA-MB453-MMTV clone 54-19, luciferase reporter); assay type: cell-based; settings: inhibition of induction by DHT (final concentration at 100 μM), 17 hr, compound 0.32-1000 nM, mean of multiple tests
T2 sequence (P10275 1-920 Q868H): T1 sequence (P10275 1-920) with Q868H
Method: The compounds ability to antagonize the effects of androgen on the androgen receptor were determined in a whole cell assay as described immediately below.
Experimental Procedure for AR Antagonist Cell Assay
This cell line is a stable transfected cell line with MDA-MB453 cell background (a human breast tumor cell line expressing androgen receptor). A MMTV minimal promoter containing ARE was first cloned in front of a firefly luciferase reporter gene. Then the cascade was cloned into transfection vector pUV120puro. […] Puromycin resistant stable cell line was selected.
Cell Culture Media and Reagents:
Plating medium: DMEM (phenol red free), 10% charcoal treated HyClone serum, 1% L-glutamine
Assay medium: DMEM (phenol red free), 1% charcoal treated HyClone serum, 1% L-glutamine, 1% penicillin/streptomycin
Cells are maintained in culture medium, splitting cells when they reach 80-90% confluence
To test compounds, 10,000 cells/well are plated to opaque 96 cell culture plate in 100 ul/well plating medium, culture for overnight at 37° C. in cell culture incubator
Add 10 ul/well freshly prepared DHT (final concentration at […]) to each well, incubate at 37° C. for 17 hr (overnight)
Add 50 ul/well 3× luciferase buffer, incubate at room temperature for 5 minutes, then count on Luminometer
The results are reported as the mean of multiple tests described below (the numbers of tests are indicated in the footnote). N.D. denotes that the compound was not tested.

[1] = IC50, concentration at which one half of maximum binding of 1 nM 3H-DHT to hAR is inhibited
[2] = concentration at which one half of maximum binding of 1 nM 3H-DHT to hAR is inhibited, read-out: IC50

Compound	IC50 (hAR; [1]) [nM]	IC50 (androgen receptor) [nM]	IC50 (hAR; [2]) [nM]	IC50 (androgen receptor; read-out: IC50) [nM]
CC1(C)CN(Cc2nc3ccccc3s2)C(=O)C1Oc1ccc(C#N)c(C(F)(F)F)c1 (centres unmarked) [Example 40, 4-(1-Benzothiazol-2-ylmethyl-4,4-dimethyl-2-oxo-pyrrolidin-3-yloxy)-2-trifluoromethyl-benzonitrile]	43	50	–	–
CC1(C)CN(Cc2cccc3nsnc23)C(=O)C1Oc1ccc(C#N)c(C(F)(F)F)c1 (centres unmarked) [Example 41, 4-(1-Benzo[1,2,5]thiadiazol-4-ylmethyl-4,4-dimethyl-2-oxo-pyrrolidin-3-yloxy)-2-trifluoromethyl-benzonitrile]	–	–	107	72
CC1(C)CN(Cc2cccc(OC(F)F)c2)C(=O)C1Oc1ccc(C#N)c(C(F)(F)F)c1 (centres unmarked) [Example 42, 4-[1-(3-Difluoromethoxy-benzyl)-4,4-dimethyl-2-oxo-pyrrolidin-3-yloxy]-2-trifluoromethyl-benzonitrile]	–	–	120	219
CC1(C)CN(Cc2cccc(C#N)c2)C(=O)C1Oc1ccc(C#N)c(C(F)(F)F)c1 (centres unmarked) [Example 45]	50	50	–	–
CC1(C)CN(Cc2noc(-c3ccccc3)n2)C(=O)C1Oc1ccc(C#N)c(C(F)(F)F)c1 (centres unmarked) [Example 46, 4-[4,4-Dimethyl-2-oxo-1-(5-phenyl-[1,2,4]oxadiazol-3-ylmethyl)-pyrrolidin-3-yloxy]-2-trifluoromethyl-benzonitrile]	90	43	–	–
CC1(C)CN(Cc2ccccc2C#N)C(=O)C1Oc1ccc(C#N)c(C(F)(F)F)c1 (centres unmarked) [Example 47, 4-[1-(2-Cyano-benzyl)-4,4-dimethyl-2-oxo-pyrrolidin-3-yloxy]-2-trifluoromethyl-benzonitrile]	83	42	–	–
CC1(C)CN(Cc2ccc(C#N)cc2)C(=O)C1Oc1ccc(C#N)c(C(F)(F)F)c1 (centres unmarked) [Example 48, 4-[1-(4-Cyano-benzyl)-4,4-dimethyl-2-oxo-pyrrolidin-3-yloxy]-2-trifluoromethyl-benzonitrile]	–	62	109	–
COc1ccc(Cc2noc(CN3CC(C)(C)C(Oc4ccc(C#N)c(C(F)(F)F)c4)C3=O)n2)cc1 (centres unmarked) [Example 50, 4-{1-[3-(4-Methoxy-benzyl)-[1,2,4]oxadiazol-5-ylmethyl]-4,4-dimethyl-2-oxo-pyrrolidin-3-yloxy}-2-trifluoromethyl-benzonitrile]	–	35	152	–
CC1(C)CN(Cc2nc(-c3ccccc3)no2)C(=O)C1Oc1ccc(C#N)c(C(F)(F)F)c1 (centres unmarked) [Example 52, 4-[4,4-Dimethyl-2-oxo-1-(3-phenyl-[1,2,4]oxadiazol-5-ylmethyl)-pyrrolidin-3-yloxy]-2-trifluoromethyl-benzonitrile]	160	54	–	–
CC1(C)CN(Cc2ccc3ccccc3n2)C(=O)C1Oc1ccc(C#N)c(C(F)(F)F)c1 (centres unmarked) [Example 54, 4-(4,4-Dimethyl-2-oxo-1-quinolin-2-ylmethyl-pyrrolidin-3-yloxy)-2-trifluoromethyl-benzonitrile]	–	–	217	> 1000
CC1(C)CN(Cc2nnc(-c3ccccc3)o2)C(=O)C1Oc1ccc(C#N)c(C(F)(F)F)c1 (centres unmarked) [Example 56, 4-[4,4-Dimethyl-2-oxo-1-(5-phenyl-[1,3,4]oxadiazol-2-ylmethyl)-pyrrolidin-3-yloxy]-2-trifluoromethyl-benzonitrile]	171	735	–	–
CC1(C)CN(Cc2ccc3nonc3c2)C(=O)C1Oc1ccc(C#N)c(C(F)(F)F)c1 (centres unmarked) [Example 57, 4-(1-Benzo[1,2,5]oxadiazol-5-ylmethyl-4,4-dimethyl-2-oxo-pyrrolidin-3-yloxy)-2-trifluoromethyl-benzonitrile]	31	–	–	> 1000
CC1(C)CN(Cc2ccc(-n3cccn3)cc2)C(=O)C1Oc1ccc(C#N)c(C(F)(F)F)c1 (centres unmarked) [Example 60, 4-[4,4-Dimethyl-2-oxo-1-(4-pyrazol-1-yl-benzyl)-pyrrolidin-3-yloxy]-2-trifluoromethyl-benzonitrile]	–	–	115	> 1000
